Results taken from paper PMC4850295, “Using a Genetically Encoded Sensor to Identify Inhibitors of Toxoplasma gondii Ca^2+ Signaling” (The Journal of Biological Chemistry, 2016).

What follows are molecules tested on T1, GCaMP5-expressing T. gondii. Details: 100 uM zaprinast stimulation; 10 min pretreatment; mean of two replicates; 0.23 h.
T1 construct: whole extracellular parasites expressing GCaMP5 Ca2+ sensor
Design: species or system GCaMP5-expressing Toxoplasma gondii, extracellular; GCaMP5 fluorescence (cytosolic Ca2+) after 100 uM zaprinast in compound-pretreated extracellular parasites, background-subtracted, relative to zaprinast alone
How it was run: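 Extracellular GCaMP5-expressing parasites in Ringer's solution were pretreated with compounds (single 10 μM dose, two biological replicates) for 10 min, then stimulated with 100 μM zaprinast at 37 °C for 4 min. Fluorescence read at 485/525 nm, basal subtracted, expressed as fold change relative to zaprinast-only parasites.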

Row | Compound | fold change in fluorescence relative to zaprinast alone
1 | CCOc1ccc2c(-c3ccnc(Nc4cc(OC)cc(C(F)(F)F)c4)n3)cnn2n1 [GW807982X] | 0.9255
2 | CNc1nccc(-c2c(-c3ccc(F)cc3)ncn2CCCN2CCOCC2)n1 [SB-222516] | 0.95
3 | O=C(Nc1n[nH]c2nc(-c3ccc(O)cc3)ccc12)C1CC1 [SB-710363] | 1.137
4 | O=C(NCCNc1ccnc(Nc2ccc(F)cc2)n1)Nc1ccc2c(c1)OCO2 [GSK1379882A] | 1.425
5 | CS(=O)(=O)Nc1ccc(-c2ccnc3[nH]ccc23)cc1 [GSK993273A] | 1.181
6 | Nc1ncc(-c2ccncc2)c2scc(-c3ccc4c(c3)CCN4C(=O)Cc3ccccc3)c12 [GSK2592465A] | 1.243
7 | Nc1ccc(C#Cc2cncnc2Nc2ccc(OCc3cccc(F)c3)c(Cl)c2)cc1 [GW659893X] | 0.972
8 | NC(=O)c1cc(-c2ccncc2)cc(-c2ccccc2)c1N [GSK625137A] | 1.053
9 | COc1ccc(Nc2nccc(N3CCC(NC(=O)Nc4cc(C)ccc4C)C3)n2)cc1 (stereo not drawn) [GSK1379741A] | 1.033
10 | COc1ccc(S(=O)(=O)NC2CCN(c3cc(C)nc(Nc4cccc(C#N)c4)n3)CC2)cc1 [GSK1653539A] | 0.8764
11 | NS(=O)(=O)CCc1cccc(Nc2nccc(-c3c(-c4cccc(NC(=O)c5c(F)cccc5F)c4)nn4ccccc34)n2)c1 [GSK336735A] | 1.201
12 | CN(C)CCNS(=O)(=O)c1ccc(-c2ccnc3[nH]ccc23)cc1 [GSK977620A] | 1.218
13 | O=C(Nc1ccc(Oc2ccc3[nH]c(NC(=O)c4ccccc4)nc3c2)cc1)Nc1cc(C(F)(F)F)ccc1F [GW709042A] | 1.07
14 | Oc1ccc(-c2nc(-c3ccccc3)[nH]c2-c2ccncc2)cc1 [SB-428218-A] | 1.23
15 | c1ccc(Oc2ccc(Nc3ccnc4cc(-c5ccc(CN6CCCCC6)o5)ccc34)cc2)nc1 [GW567143X] | 0.8249
16 | O=c1[nH]ccc2nc(N[C@@H]3CCCNC3)nc(Nc3ccc(S(=O)(=O)N4CCOCC4)cc3)c12 [GSK2177277A] | 1.049
17 | NS(=O)(=O)c1ccc(Nc2cc(-c3cccc(O)c3)n[nH]2)cc1 [GW831090X] | 1.167
18 | Fc1ccc(-c2ncn(CCCN3CCOCC3)c2-c2ccccn2)cc1 [SB-211742] | 1.072
19 | Nc1ncnc2occ(-c3ccc4c(c3)CCN4C(=O)Cc3cc(F)ccc3F)c12 [GSK2645446A] | 0.8883
20 | CCc1nccc2c1nc(-c1nonc1N)n2CC [SB-751148] | 1.115
21 | CC1=C(C(=O)Nc2ccc3[nH]ncc3c2)C(c2ccc(F)cc2)N=C(c2ccc(C(F)(F)F)nc2)N1 (stereo not drawn) [GSK317354A] | 1.324
22 | CCN1CCC(C(=O)Nc2n[nH]c3nnc(-c4cccc(F)c4F)cc23)CC1 [SB-686709-A] | 1.08
23 | COC(=O)Nc1nc2cc(Oc3ccc(NC(=O)Nc4ccccc4)cc3)ccc2[nH]1 [GW694590A] | 1.127

Row | Compound | fold change in fluorescence relative to zaprinast alone
24 | Cc1cccc(Nc2ncc(-c3ccccc3)o2)c1 [GW632046X] | 1.202
25 | Cc1ccc(NC(=O)c2ccnc(N3CCCC3)c2)cc1-c1ccc(C(=O)NCC2CC2)cc1 [GW769076X] | 1.128
26 | CCn1c(-c2nonc2N)nc2cncc(C(=O)N3CC[C@H](N)C3)c21 [SB-772077-B] | 1.135
27 | Oc1cccc(Nc2ccnc3cc(-c4ccncc4)ccc23)c1 [GW494601A] | 1.032
28 | CCCCc1nn2ncccc2c1-c1ccnc(NC2CC2)n1 [GW684374X] | 0.8894
29 | CN(C)CC(O)COc1ccc(Nc2nccc(-c3cnn4nc(N5CCOCC5)ccc34)n2)cc1 (stereo not drawn) [GW767488X] | 0.9765
30 | O=c1[nH]cc(-c2ccc(O)cc2)c2sc(-c3ccncc3)cc12 [GSK1033723A] | 1.385
31 | Cc1ccc2c(-c3ccncc3)c(-c3ccc(F)cc3)nn2c1 [GW461484A] | 0.2133
32 | O=C(Nc1n[nH]c2cc(-c3cc(F)ccc3F)ccc12)C1CC1 [SB-735465] | 1.125
33 | NS(=O)(=O)c1cccc(-c2ccc3c(NC(=O)C4CC4)n[nH]c3c2)c1 [SB-741905] | 1.374
34 | CN1C(=O)C(Nc2cc(Cl)c(O)c(Cl)c2)=C(c2ccc(Cl)cc2)C1=O [SB-404321] | 1.253
35 | O=C(Nc1n[nH]c2nc(-c3ccccc3)c(Br)cc12)C1CC1 [SB-708998] | 0.9523
36 | CCCCc1nn2ncccc2c1-c1ccnc(Nc2ccc(N3CCN(C)CC3)cc2)n1 [GW684941X] | 0.4893
37 | COc1ccc(CNC(=O)NC2CCN(c3ccnc(Nc4ccc(F)cc4)n3)CC2)cc1 [GSK1379788A] | 1.01
38 | Cc1ccc(C)c(NC(=O)NCCNc2ccnc(Nc3ccc(F)cc3)n2)c1 [GSK1379878A] | 1.583
39 | COc1cc2ncn(-c3cc(O[C@H](C)c4ccccc4Cl)c(C(N)=O)s3)c2cc1OC [GSK237701A] | 0.7907
40 | NS(=O)(=O)c1ccc(N/N=C2\C(=O)Nc3cccc(CCc4ccncc4)c32)cc1 [GW352430A] | 1.031
41 | NS(=O)(=O)c1ccc(N/N=C2\C(=O)Nc3ccc(-c4cnco4)cc32)cc1 [GW276655X] | 1.083
42 | COc1cc2ncn(-c3cc(OCc4ccccc4C(F)(F)F)c(C(N)=O)s3)c2cc1OC [GW843682X] | 1.213
43 | Cc1cc(O)cc(C)c1/C=C/c1cncc(C(=O)N(C)C)c1 [GW427984X] | 1.241
44 | Nc1nccc2scc(-c3ccc4c(c3)CCN4C(=O)Cc3ccccc3)c12 [GSK2576924A] | 0.9278
45 | COc1cc(Nc2ccnc3cc(-c4ccncc4)ccc23)cc(OC)c1OC [GW494610A] | 0.2498
46 | COC(=O)Nc1nc2cc(Oc3ccc(NC(=O)Nc4cccc(Br)c4)cc3)ccc2[nH]1 [GW694234A] | 0.8976

Row | Compound | fold change in fluorescence relative to zaprinast alone
47 | COc1cccc(-n2cnc3c(N/N=C/c4ccncc4)ncnc32)c1 [GW813360X] | 1.13
48 | CN(C)S(=O)(=O)c1cc(-c2ccc3nccc(-c4cccc(S(N)(=O)=O)c4)c3c2)cnc1N [GSK1669921A] | 1.101
49 | CCCNC(=O)Nc1ccc(N(C)c2ccnc(NC3CC3)n2)cc1 [GW818933X] | 0.4908
50 | O=C(Nc1n[nH]c2nc(-c3ccco3)ccc12)C1CC1 [SB-743899] | 1.211
51 | CCN1CCC(CC(=O)Nc2n[nH]c3nnc(-c4cccc(F)c4F)cc23)CC1 [SB-698596-AC] | 1.047
52 | Nc1ncnc2occ(-c3ccc(NC(=O)Nc4cc(C(F)(F)F)cc(C(F)(F)F)c4)cc3)c12 [GW795486X] | 0.08819
53 | COc1ccc(C2=NC(c3ccc(Cl)cc3F)C(C(=O)Nc3ccc4[nH]ncc4c3)=C(C)N2)cn1 (stereo not drawn) [GSK534913A] | 1.286
54 | CC1=C(C(=O)Nc2cc(Cl)c3[nH]ncc3c2)C(c2ccc(C(F)(F)F)cc2)CC(=O)N1 (stereo not drawn) [GSK466317A] | 1.01
55 | Cc1ccc(S(=O)(=O)Nc2ccc(Nc3nccc(Nc4cccc5[nH]ncc45)n3)cc2)cc1 [GSK581271A] | 0.8813
56 | NS(=O)(=O)c1ccc(N/C=C2\C(=O)Nc3ccc4ncsc4c32)cc1 [GW297361X] | 1.167
57 | Cc1occc1-c1nc(N)c(OC[C@@H](N)Cc2c[nH]c3ccccc23)cc1-c1cc2c(C)[nH]nc2cn1 [GSK1660450B] | 1.179
58 | c1ccc(Oc2ccc(Nc3ccnc4cc(-c5ccc(CN6CCNCC6)o5)ccc34)cc2)nc1 [GW567142A] | 0.8742
59 | Cc1cc(O)cc(C)c1/C=C/c1cncc(-c2nn[nH]n2)c1 [GW441806A] | 1.117
60 | CC(C)(C)n1cnc2c(N)ncnc21 [SKF-97359] | 1.052
61 | Nc1n[nH]c2cnc(-c3ccccc3)cc12 [SB-642124-AAA] | 1.394
62 | c1ccc(Cn2cnc3cc(Nc4ncnc5ccccc45)ccc32)cc1 [GW272142A] | 1.177
63 | Nc1ncnc2c1ncn2-c1ccc(Cl)cc1 [AH2635] | 1.022
64 | COc1cc(Nc2nccc(N3CCC(NC(=O)Nc4cccc(C(C)=O)c4)C3)n2)cc(OC)c1OC (stereo not drawn) [GSK1379753A] | 1.391
65 | O=C1Nc2ccccc2/C1=C/Nc1ccc2[nH]c(=O)[nH]c2c1 [GW284408X] | 0.9722
66 | Nc1nccc(C#Cc2cncnc2Nc2ccc(OCc3cccc(F)c3)c(Cl)c2)n1 [GW799251X] | 1.079
67 | Oc1cc(Nc2ccnc3cc(I)ccc23)ccc1F [GW552771X] | 0.9648
68 | COc1cccc(NC(=O)NC2CCN(c3ccnc(Nc4cc(OC)c(OC)c(OC)c4)n3)C2)c1 (stereo not drawn) [GSK1379763A] | 1.269
69 | NS(=O)(=O)c1ccc(NC=C2C(=O)Nc3ccc4ncsc4c32)cc1 [GW589933X] | 1.196
